“And” between values parts separate entries of the source, which are not always exact repeats. Equal values may be shown once.
Molecular target: T1, human PTP1B (Homo sapiens, UniProt P18031)
T1 construct: human PTP1B (amino acid residues 1-321); made in house; host or cells: E. coli BL21(DE3)
T1 sequence (P18031 1-321): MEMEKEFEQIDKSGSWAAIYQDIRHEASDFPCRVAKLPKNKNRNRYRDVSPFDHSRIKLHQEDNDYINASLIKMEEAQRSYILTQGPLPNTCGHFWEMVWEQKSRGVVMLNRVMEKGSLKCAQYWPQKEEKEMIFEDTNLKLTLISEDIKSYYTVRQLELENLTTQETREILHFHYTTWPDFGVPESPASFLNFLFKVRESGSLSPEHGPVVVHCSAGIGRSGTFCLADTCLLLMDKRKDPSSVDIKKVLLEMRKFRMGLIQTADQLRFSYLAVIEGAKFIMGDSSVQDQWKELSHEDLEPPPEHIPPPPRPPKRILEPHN
Assay: PTP1B assay, pNPP hydrolysis, assayed exactly as for PTP1
Type: biochemical
Details: for PTP1B Inhib PTP1B. % Inhib: Table 2; for inhibition at 1 µM / inhibition at 10 µM / inhibition at 100 µM: Table 2, read-out: PTP1B Inhib PTP1B. % Inhib
Text: The equivalent construct of human PTP1B (amino acid residues 1-321) (cloned from a human placental library), without the GST tag and thrombin cleavage site, was inserted into a pMB replicon and transformed into E. coli BL21(DE3), a strain containing a chromosomal copy of the gene for T7 RNA polymerase under control of a lacUV5 promoter. Expression of PTP1B was induced with isopropyl thiogalactose and the soluble protein was purified by ion exchange, hydrophobic interaction and gel exclusion chromatography for use in the assay to identify PTP inhibitors.
PTP1 activity is measured using either p-nitrophenol phosphate (pNPP) or a triphosphopeptide (that matches residues 1142 through 1153 of the β-subunit and the insulin receptor) as substrate in a 96-well microtiter plate format. An assay pH of 7.2 is used for standard assays (measured 405=9800 at pH 7.2).
Human PTP1B, which is highly homologous to rat PTP1, was assayed exactly as described above for PTP1.
Standard assays are conducted at room temperature in a total volume of 0.2 ml that contains Hepes buffer (50 mM, pH 7.2), NaCl (50 mM), EDTA (1 mM), DTT (1 mM), bovine serum albumin (1 mg/ml), pNPP (1 mM) and PTP1 (35 ng/ml). Compounds (2 μl of 10 mM solutions) are pipetted into wells of microtiter plates followed by 198 μl of premixed reaction mix (with PTP1 and pNPP added immediately before use). The rate of change in A405 is recorded for 60 min. Two wells on each plate contain DMSO controls and two wells contain sodium orthovanadate (1 mM) which inhibits PTP1-catalyzed hydrolysis of pNPP completely. Data are expressed as percent inhibition relative to the average of the DMSO controls measured on the same microtiter plate.

Structure (SMILES) | PTP1B Inhib PTP1B. % Inhib (Conc 1 uM) | inhibition at 1 µM (Conc 1 uM) [%] | PTP1B Inhib PTP1B. % Inhib (Conc 10 uM) | inhibition at 10 µM (Conc 10 uM) [%] | inhibition at 100 µM (Conc 100 uM) [%] | PTP1B Inhib PTP1B. % Inhib (Conc 100 uM) [%]
CCCCCNC(=O)C(Cc1ccc(OCCOO)c(COO)c1)NC(=O)C(Cc1ccccc1)NC(=O)CCC(=O)O (stereo not drawn) | 66% | 64 | 92% | 93 | 98 | 
CCCCCNC(=O)C(Cc1ccc(OC(COO)COO)cc1)NC(=O)C(CSCc1ccccc1)NC(=O)OC(C)(C)C (stereo not drawn) | 3% | 2 | 16% | 14 | 75 | 83
CCCCCNC(=O)C(Cc1ccc(OCC(=O)O)c(OCC(=O)O)c1)NC(=O)C(Cc1ccccc1)NC(=O)OC(C)(C)C (stereo not drawn) |  | 1 |  | 5 | 25 | 
CCCCCNC(=O)C(Cc1ccc(OC(COO)COO)cc1)NC(=O)N(Cc1ccccc1)Cc1ccccc1 (stereo not drawn) | 14% | 18 | 59% | 65 | 95 | 93
CCCCCNC(=O)C(Cc1ccc(OC(COO)COO)cc1)NC(=O)C(Cc1ccccc1)NS(=O)OC (stereo not drawn) |  | 9 |  | 40 | 86 | 
CCCCCNC(=O)C(Cc1ccc(OC(COO)COO)cc1)NC(=O)Nc1cccc(C(=O)O)c1 (stereo not drawn) |  | 17 |  | 63 | 94 | 
CC(C)(C)OC(=O)N[C@@H](Cc1ccccc1)C(=O)N[C@H](CO)Cc1ccc(OCC(=O)O)c(C(=O)O)c1 [drawing 222] |  | 5 |  | 31 | 80 | 
CCCCCNC(=O)C(Cc1ccc(OCCOO)c(COO)c1)NC(=O)C(Cc1ccccc1)NC(C)=O (stereo not drawn) |  | 28 |  | 77 | 96 | 
CCCCCNC(=O)[C@H](Cc1ccc(OCC(=O)O)c(C(=O)NO)c1)NC(=O)[C@H](Cc1ccccc1)NC(=O)OC(C)(C)C |  | 5 |  | 13 | 54 | 
CCCCCNC(=O)C(Cc1ccc(OCCOO)c(COO)c1)NC(=O)C(Cc1ccccc1)NC(=O)Cc1cccc(O)c1 (stereo not drawn) |  | 43 |  | 86 | 98 | 
CCCCCNC(=O)C(Cc1ccc(OC(COO)COO)cc1)NC(=O)C(CC(N)=O)NC(=O)OC(C)(C)C (stereo not drawn) |  | 9 |  | 40 | 85 | 
CCCCCNC(=O)C(Cc1ccc(OCCOO)c(COO)c1)NC(=O)C(Cc1ccccc1)NC(=O)Cc1ccc(O)cc1 (stereo not drawn) |  | 46 |  | 88 | 98 | 
CCCCCNC(=O)C(Cc1ccc(OC(COO)COO)cc1)NC(=O)C(CCSC)NC(=O)OC(C)(C)C (stereo not drawn) |  | 5 | 30% | 25 | 74 | 82
CCCCCNC(=O)C(Cc1ccc(OCCOO)c(COO)c1)NC(=O)C(Cc1ccccc1)NC(=O)Cc1ccc(C)cc1 (stereo not drawn) |  | 39 |  | 85 | 98 | 
CCCCCNC(=O)C(Cc1ccc(OC(COO)COO)cc1)NC(=O)C(Cc1ccc2ccccc2c1)NC(=O)OC(C)(C)C (stereo not drawn) | 1% and 3% |  |  | 29 | 93 | 90
CCCCCNC(=O)C(Cc1ccc(OCCOO)c(COO)c1)NC(=O)C(Cc1ccccc1)NC(=O)CCCO (stereo not drawn) |  | 23 |  | 78 | 96 | 

Structure (SMILES) | PTP1B Inhib PTP1B. % Inhib (Conc 1 uM) | inhibition at 1 µM (Conc 1 uM) [%] | PTP1B Inhib PTP1B. % Inhib (Conc 10 uM) | inhibition at 10 µM (Conc 10 uM) [%] | inhibition at 100 µM (Conc 100 uM) [%] | PTP1B Inhib PTP1B. % Inhib (Conc 100 uM) [%]
CCCCCNC(=O)C(Cc1ccc(OC(COO)COO)cc1)NC(=O)C(CCc1ccccc1)NC(=O)OC(C)(C)C (stereo not drawn) |  | 2 | 7% and 17% |  | 58 | 77
CCCCCNC(=O)C(Cc1ccc(OCCOO)c(COO)c1)NC(=O)C(Cc1ccccc1)NC(=O)CCNS(C)(=O)=O (stereo not drawn) |  | 15 |  | 73 | 95 | 
CCCCCNC(=O)C(Cc1ccc(OC(COO)COO)cc1)NC(=O)N(Cc1cccc(C(=O)O)c1)Cc1cccc(C(F)(F)F)c1 (stereo not drawn) |  | 3 |  | 9 | 58 | 
CCCCCNC(=O)C(Cc1ccc(OCCOO)c(COO)c1)NC(=O)C(Cc1ccccc1)NC(=O)OC(C)(C)C (stereo not drawn) [drawing 189] | 2% |  | 19% |  |  | 69
CCCCCNC(=O)C(Cc1ccc(OC(COO)COO)cc1)NC(=O)C(Cc1ccccc1)NC(=O)CCOC (stereo not drawn) |  | 19 |  | 65 | 94 | 
CCCCCNC(=O)[C@H](Cc1ccc(OCC(=O)O)c(C(=O)O)c1)NC(=O)C(Cc1ccccc1)NC(=O)CSc1cnn[nH]1 (stereo partly drawn) |  | 49 |  | 88 | 98 | 
CCCCCNC(=O)C(Cc1ccc(OC(COO)COO)cc1)NC(=O)CNC(=O)OCc1ccccc1 (stereo not drawn) |  | 6 |  | 19 | 66 | 
CCCCCNC(=O)C(Cc1ccc(OC(COO)COO)cc1)NC(=O)C(Cc1c(F)c(F)c(F)c(F)c1F)NC(=O)OC(C)(C)C (stereo not drawn) |  | 5 |  | 25 | 80 | 
CCCCCNC(=O)C(Cc1ccc(OCCOO)c(COO)c1)NC(=O)C(Cc1ccccc1)NC(=O)CCNC(=O)OC(C)(C)C (stereo not drawn) |  | 19 |  | 75 | 96 | 
CCCCCNC(=O)C(Cc1ccc(OC(COO)COO)cc1)NC(=O)C(CCCCNC(=O)OCc1ccccc1)NC(=O)OC(C)(C)C (stereo not drawn) |  | 6 |  | 28 | 79 | 
CCCCCNC(=O)C(Cc1ccc(OCCOO)c(COO)c1)NC(=O)C(Cc1ccc(O)cc1)NC(=O)OC(C)(C)C (stereo not drawn) | 28% | 32 | 78% | 81 | 97 | 96
CC(C)(C)OC(=O)N[C@@H](Cc1ccccc1)C(=O)N[C@@H](Cc1ccc(OCC(=O)O)c(C(=O)O)c1)C(=O)NCCCCc1ccccc1 [drawing 221] |  | 64 |  | 93 | 98 | 
CCCCCNC(=O)C(Cc1ccc(OC(COO)COO)cc1)NC(=O)C(Cc1cccc2ccccc12)NC(=O)OC(C)(C)C (stereo not drawn) |  | 3 |  | 33 | 86 | 
CCCCCNC(=O)[C@H](Cc1ccc(OCC(=O)OC)c(C(=O)O)c1)NC(=O)[C@H](Cc1ccccc1)NC(=O)OC(C)(C)C |  | 3 |  | 5 | 25 | 
CCCCCNC(=O)C(Cc1ccc(OCCOO)c(COO)c1)NC(=O)C(Cc1ccccc1)NC(=O)Cc1ccccc1 (stereo not drawn) |  | 45 |  | 87 | 98 | 

Reference: patent US6410585B1, “Inhibitors of protein tyrosine phosphatase” (priority 1997, dated 2002)
